Experimental data: ChEMBL document CHEMBL3585246, “Design, synthesis and evaluation of novel 2-butyl-4-chloroimidazole derived peptidomimetics as Angiotensin Converting Enzyme (ACE) inhibitors” (Bioorg Med Chem, 2015)

Assays:
[1] = target: T1, Angiotensin-converting enzyme (Oryctolagus cuniculus) (UniProt P12822); assay: Inhibition of rabbit lung ACE assessed as hippuryl-histidyl-leucine hydrolysis at 1 uM after 30 mins by colorimetric method
T1 sequence (whole entry): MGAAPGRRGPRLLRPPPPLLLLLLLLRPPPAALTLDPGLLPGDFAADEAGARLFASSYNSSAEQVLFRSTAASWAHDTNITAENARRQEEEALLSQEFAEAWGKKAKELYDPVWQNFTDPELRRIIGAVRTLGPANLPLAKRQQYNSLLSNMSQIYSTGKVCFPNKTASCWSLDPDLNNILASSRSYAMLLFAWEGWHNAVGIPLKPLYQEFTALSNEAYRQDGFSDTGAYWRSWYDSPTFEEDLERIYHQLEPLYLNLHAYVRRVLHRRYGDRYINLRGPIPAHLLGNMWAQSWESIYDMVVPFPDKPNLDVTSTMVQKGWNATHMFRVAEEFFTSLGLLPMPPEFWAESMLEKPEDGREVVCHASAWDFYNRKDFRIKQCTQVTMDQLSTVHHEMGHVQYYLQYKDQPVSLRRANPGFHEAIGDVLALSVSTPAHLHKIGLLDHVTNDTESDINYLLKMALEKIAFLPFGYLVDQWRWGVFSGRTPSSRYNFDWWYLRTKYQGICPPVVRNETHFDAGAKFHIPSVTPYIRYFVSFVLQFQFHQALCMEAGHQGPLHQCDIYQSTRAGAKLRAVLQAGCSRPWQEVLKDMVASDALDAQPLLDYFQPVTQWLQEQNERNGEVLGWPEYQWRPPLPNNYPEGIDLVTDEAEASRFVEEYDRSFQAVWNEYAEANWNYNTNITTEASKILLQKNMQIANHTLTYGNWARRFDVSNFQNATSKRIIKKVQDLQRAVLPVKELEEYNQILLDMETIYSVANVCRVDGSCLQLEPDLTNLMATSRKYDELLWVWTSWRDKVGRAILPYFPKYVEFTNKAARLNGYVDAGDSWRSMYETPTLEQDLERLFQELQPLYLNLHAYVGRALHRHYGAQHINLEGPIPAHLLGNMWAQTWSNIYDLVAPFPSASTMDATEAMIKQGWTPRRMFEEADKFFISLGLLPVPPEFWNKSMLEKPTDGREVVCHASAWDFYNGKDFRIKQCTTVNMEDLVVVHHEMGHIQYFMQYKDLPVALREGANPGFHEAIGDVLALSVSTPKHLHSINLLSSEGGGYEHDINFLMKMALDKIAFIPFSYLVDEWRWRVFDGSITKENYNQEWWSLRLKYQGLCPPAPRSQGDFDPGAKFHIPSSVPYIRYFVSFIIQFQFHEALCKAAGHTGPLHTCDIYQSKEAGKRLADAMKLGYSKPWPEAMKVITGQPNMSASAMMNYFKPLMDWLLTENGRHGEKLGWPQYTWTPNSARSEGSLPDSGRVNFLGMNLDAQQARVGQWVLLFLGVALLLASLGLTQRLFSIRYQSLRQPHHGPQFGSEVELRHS

ACE (rabbit lung) [2] = assay: Ratio of IC50 for HEK cells to IC50 for rabbit lung ACE; format: cell-based, HEK293; settings: read-out: Ratio IC50
ACE (rabbit lung) [3] = assay: Ratio of IC50 for human A549 cells to IC50 for rabbit lung ACE; format: cell-based; settings: read-out: Ratio IC50
[4] = target: T2, Angiotensin-converting enzyme (Oryctolagus cuniculus, UniProt P12822); assay: Inhibition of rabbit lung ACE assessed as hippuryl-histidyl-leucine hydrolysis after 30 mins by colorimetric method
T2 sequence (P12822 whole entry): T1 sequence (whole entry)

| SMILES | inhibition [1] | selectivity ratio (ACE (rabbit lung) [2]) | selectivity ratio (ACE (rabbit lung) [3]) | IC50 [4] |
| --- | --- | --- | --- | --- |
| CCCCc1nc(Cl)c(C(=O)N[C@H](C(=O)O)[C@H](C)CC)n1C | > 80% | 1000 | 1000 | 1.12 µM |
| CCCCc1nc(Cl)c(C(=O)N[C@@H](CCSC)C(=O)OC)n1C | 55% | – | – | – |
| CCCCc1nc(Cl)c(C(=O)N[C@@H](C)C(=O)OC)n1C | 55% | – | – | – |
| CCCCc1nc(Cl)c(C(=O)NCC(=O)OC)n1C | 55% | – | – | – |
| CCCCc1nc(Cl)c(C(=O)N[C@@H](Cc2ccc(O)cc2)C(=O)O)n1C | 55% | – | – | – |
| CCCCc1nc(Cl)c(C(=O)N[C@@H](CC(C)C)C(=O)O)n1C | 55% | – | – | – |
| CCCCc1nc(Cl)c(C(=O)N[C@@H](Cc2ccccc2)C(=O)OC)n1C | > 80% | 1000 | 1000 | 0.647 µM |
| CCCCc1nc(Cl)c(C(=O)N[C@@H](Cc2c[nH]c3ccccc23)C(=O)OC)n1C | > 80% | 1000 | 1000 | 0.531 µM |
| CCCCc1nc(Cl)c(C(=O)N[C@H](C(=O)OC)C(C)C)n1C | 55% | – | – | – |
| CCOC(=O)[C@H](CCc1ccccc1)N[C@H]1CCc2ccccc2N(CC(=O)O)C1=O [BENAZEPRIL] | – | – | – | 0.1 µM |
| CCCCc1nc(Cl)c(C(=O)N[C@@H](Cc2c[nH]c3ccccc23)C(=O)O)n1C | > 80% | – | – | – |
| CCCCc1nc(Cl)c(C(=O)N[C@@H](Cc2ccccc2)C(=O)O)n1C | 55% | 1000 | 1000 | 0.1 µM |
| CCCCc1nc(Cl)c(C(=O)NCC(=O)O)n1C | 55% | – | – | – |
| CCCCc1nc(Cl)c(C(=O)N[C@@H](C)C(=O)O)n1C | 55% | – | – | – |
| CCCCc1nc(Cl)c(C(=O)N[C@H](C(=O)OC)[C@H](C)O)n1C | 55% | – | – | – |
| NCCCC[C@H](N[C@@H](CCc1ccccc1)C(=O)O)C(=O)N1CCC[C@H]1C(=O)O [LISINOPRIL ANHYDROUS] | – | – | – | 0.318 µM |
| CCCCc1nc(Cl)c(C(=O)N[C@@H](Cc2ccc(O)cc2)C(=O)OC)n1C | 55% | – | – | – |
| CCCCc1nc(Cl)c(C(=O)N[C@@H](CC(C)C)C(=O)OC)n1C | 55% | – | – | – |
| CCCCc1nc(Cl)c(C(=O)N[C@H](C(=O)OC)[C@H](C)CC)n1C | 55% | – | – | – |
| CCCCc1nc(Cl)c(C(=O)N[C@@H](CO)C(=O)OC)n1C | 55% | – | – | – |
| CCCCc1nc(Cl)c(C(=O)N[C@H](C(=O)O)C(C)C)n1C | 55% | – | – | – |
| CCCCc1nc(Cl)c(C(=O)N[C@@H](CCSC)C(=O)O)n1C | > 80% | 1000 | 1000 | 0.657 µM |
| CCCCc1nc(Cl)c(C(=O)N[C@@H](CO)C(=O)O)n1C | 55% | – | – | – |
| CCCCc1nc(Cl)c(C(=O)N[C@H](C(=O)O)[C@H](C)O)n1C | 55% | – | – | – |
